These results are taken from patent US10196401B2, “Spiro-lactam NMDA receptor modulators and uses thereof” (Aptinyx Inc., priority 2016, dated 2019).

One assay concerns the target NMDAR2C (Homo sapiens, UniProt Q14957). Put plainly: Potentiation of [3H]MK-801 binding, NMDAR2C. Conditions: NMDAR2C binding profile; for % 1 mM Glycine: relative to 1 mM glycine. Also on record: species or system rat.
The next assay addresses NMDAR2A (Homo sapiens, UniProt Q12879). Description: Potentiation of [3H]MK-801 binding, NMDAR2A. Also on record: species or system rat. To be noted: NMDAR2A binding profile; for % 1 mM Glycine: relative to 1 mM glycine. As to the method: (§1) Assays were conducted as described by Moskal et al., “GLYX-13: a monoclonal antibody-derived peptide that acts as an N-rnethyl-D-aspartate receptor modulator,” Neuropharmacology, 49, 1077-87, 2005. The potentiation of [^3H]MK-801 binding (5 nrM; 22.5 Ci/mmol) to well washed rat cortical membranes (200 μg) was measured under non-equilibrium conditions (15 min @ 25° C.) in the presence of increasing concentrations of Compound A.
(§2) Assays were conducted as described above in Example 5, by Moskal et al. (2005).

The next assay deals with NMDAR2D (Homo sapiens, UniProt O15399). Description: Potentiation of [3H]MK-801 binding, NMDAR2D. Also on record: species or system rat. Conditions: NMDAR2D binding profile; for % 1 mM Glycine: relative to 1 mM glycine. The protocol: as §1, §2
The target of another assay is NMDAR2B (Homo sapiens, UniProt Q13224). Description: Potentiation of [3H]MK-801 binding, NMDAR2B. Also on record: species or system rat. Conditions: NMDAR2B binding profile; for % 1 mM Glycine: relative to 1 mM glycine.
A further assay has as its system Sprague Dawley rats. Put plainly: Bennett model of mechanical analgesia (paw withdrawal threshold). It is filed as in vivo, rat. To be noted: 150 mg/kg PO; tested 1 h, 24 hrs and 1 week post-dosing. As to the method: Bennett G J, Xie Y K, “A peripheral mononeuropathy in rat that produces disorders of pain sensation like those seen in man,” Pain 33:87-107, 1988. […] Vehicle animals receive the surgery and then receive vehicle rather than test compound. Animals were tested 1 hr, 24 h and 1 wk post-test compound or vehicle administration.
Male 2-3 month old Sprague Dawley rats were used. Harlan was the supplier for all studies. Rats were housed in Lucite cages with aspen wood chip bedding, maintained on a 12:12 light:dark cycle (lights on at 5 AM), and given ad libitum access to Purina lab chow (USA) and tap water throughout the study.
Rats were anesthetized using inhaled isoflurane (2.5%). Spared nerve injury surgery was performed as previously described (Bennett and Xie, 1988). An incision (˜1.5 cm in length) was made with a scalpel blade dorsally through skin on the right hindlimb, parallel and posterior to femur. Using a small pointed hemostat, the biceps femoris and gluteus superficialis muscles were separated. Using curved blunt forceps, the common sciatic nerve was isolated and exposed. For the mechanical analgesia studies, the whole sciatic nerve was ligated. Using hemostats/forceps and chromic gut (5-0), the nerve was loosely ligated with a square knot; 3 ligatures, 1 mm apart were placed on the nerve. […] For the thermal analgesia studies, the common peroneal and tibial branches of the sciatic nerve were ligated and cut, and the sural branch was spared. See Decosterd I, Woolf C J, “Spared nerve injury: an animal model of persistent peripheral neuropathic pain,” Pain 87:149-158, 2000. Testing occurred 1-2 weeks post-surgery.
During testing, rats were acclimated to the surface of a suspended wire mesh grid (1 cm×1 cm, with the wire being 0.3 cm in diameter) for 15-20 min. Starting from the smallest, each Von Frey filament was pressed perpendicularly to the plantar surface of the affected (ipsilateral) hindpaw until slightly bent and then held for 6 second. […]

Sequence of NMDAR2C (Q14957 20-1233, species assumed, other chains not shown): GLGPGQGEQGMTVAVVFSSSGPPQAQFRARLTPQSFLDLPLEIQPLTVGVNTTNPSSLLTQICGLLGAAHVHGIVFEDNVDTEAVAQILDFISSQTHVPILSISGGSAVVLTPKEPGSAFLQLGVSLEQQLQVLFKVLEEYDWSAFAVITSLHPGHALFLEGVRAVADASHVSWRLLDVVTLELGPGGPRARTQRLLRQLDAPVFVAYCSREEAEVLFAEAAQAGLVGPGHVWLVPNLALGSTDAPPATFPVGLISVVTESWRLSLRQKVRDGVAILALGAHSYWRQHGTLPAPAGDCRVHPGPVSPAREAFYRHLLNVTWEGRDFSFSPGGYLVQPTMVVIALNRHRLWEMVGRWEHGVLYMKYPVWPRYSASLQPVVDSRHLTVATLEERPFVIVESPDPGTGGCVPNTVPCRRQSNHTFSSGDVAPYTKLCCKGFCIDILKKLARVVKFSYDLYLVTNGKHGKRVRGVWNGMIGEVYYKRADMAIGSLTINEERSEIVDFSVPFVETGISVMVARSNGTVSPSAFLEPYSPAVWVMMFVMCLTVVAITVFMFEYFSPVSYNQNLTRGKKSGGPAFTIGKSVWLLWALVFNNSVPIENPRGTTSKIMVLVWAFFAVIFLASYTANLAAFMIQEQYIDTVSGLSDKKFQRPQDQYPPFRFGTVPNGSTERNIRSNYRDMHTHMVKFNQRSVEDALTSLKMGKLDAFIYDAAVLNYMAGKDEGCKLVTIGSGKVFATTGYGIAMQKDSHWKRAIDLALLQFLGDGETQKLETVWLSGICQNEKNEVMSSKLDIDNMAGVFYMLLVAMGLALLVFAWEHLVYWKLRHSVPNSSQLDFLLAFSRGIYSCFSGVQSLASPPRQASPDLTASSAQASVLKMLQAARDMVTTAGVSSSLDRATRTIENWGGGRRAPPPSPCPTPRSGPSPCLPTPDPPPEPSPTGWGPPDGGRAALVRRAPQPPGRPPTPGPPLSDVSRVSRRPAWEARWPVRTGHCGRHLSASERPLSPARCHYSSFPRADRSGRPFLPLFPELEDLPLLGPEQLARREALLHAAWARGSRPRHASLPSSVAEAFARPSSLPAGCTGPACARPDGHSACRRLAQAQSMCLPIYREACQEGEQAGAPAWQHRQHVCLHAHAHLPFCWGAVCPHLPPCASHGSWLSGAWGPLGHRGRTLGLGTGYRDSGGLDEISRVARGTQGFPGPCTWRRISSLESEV
Sequence of NMDAR2A (Q12879 23-1464, species assumed, other chains not shown): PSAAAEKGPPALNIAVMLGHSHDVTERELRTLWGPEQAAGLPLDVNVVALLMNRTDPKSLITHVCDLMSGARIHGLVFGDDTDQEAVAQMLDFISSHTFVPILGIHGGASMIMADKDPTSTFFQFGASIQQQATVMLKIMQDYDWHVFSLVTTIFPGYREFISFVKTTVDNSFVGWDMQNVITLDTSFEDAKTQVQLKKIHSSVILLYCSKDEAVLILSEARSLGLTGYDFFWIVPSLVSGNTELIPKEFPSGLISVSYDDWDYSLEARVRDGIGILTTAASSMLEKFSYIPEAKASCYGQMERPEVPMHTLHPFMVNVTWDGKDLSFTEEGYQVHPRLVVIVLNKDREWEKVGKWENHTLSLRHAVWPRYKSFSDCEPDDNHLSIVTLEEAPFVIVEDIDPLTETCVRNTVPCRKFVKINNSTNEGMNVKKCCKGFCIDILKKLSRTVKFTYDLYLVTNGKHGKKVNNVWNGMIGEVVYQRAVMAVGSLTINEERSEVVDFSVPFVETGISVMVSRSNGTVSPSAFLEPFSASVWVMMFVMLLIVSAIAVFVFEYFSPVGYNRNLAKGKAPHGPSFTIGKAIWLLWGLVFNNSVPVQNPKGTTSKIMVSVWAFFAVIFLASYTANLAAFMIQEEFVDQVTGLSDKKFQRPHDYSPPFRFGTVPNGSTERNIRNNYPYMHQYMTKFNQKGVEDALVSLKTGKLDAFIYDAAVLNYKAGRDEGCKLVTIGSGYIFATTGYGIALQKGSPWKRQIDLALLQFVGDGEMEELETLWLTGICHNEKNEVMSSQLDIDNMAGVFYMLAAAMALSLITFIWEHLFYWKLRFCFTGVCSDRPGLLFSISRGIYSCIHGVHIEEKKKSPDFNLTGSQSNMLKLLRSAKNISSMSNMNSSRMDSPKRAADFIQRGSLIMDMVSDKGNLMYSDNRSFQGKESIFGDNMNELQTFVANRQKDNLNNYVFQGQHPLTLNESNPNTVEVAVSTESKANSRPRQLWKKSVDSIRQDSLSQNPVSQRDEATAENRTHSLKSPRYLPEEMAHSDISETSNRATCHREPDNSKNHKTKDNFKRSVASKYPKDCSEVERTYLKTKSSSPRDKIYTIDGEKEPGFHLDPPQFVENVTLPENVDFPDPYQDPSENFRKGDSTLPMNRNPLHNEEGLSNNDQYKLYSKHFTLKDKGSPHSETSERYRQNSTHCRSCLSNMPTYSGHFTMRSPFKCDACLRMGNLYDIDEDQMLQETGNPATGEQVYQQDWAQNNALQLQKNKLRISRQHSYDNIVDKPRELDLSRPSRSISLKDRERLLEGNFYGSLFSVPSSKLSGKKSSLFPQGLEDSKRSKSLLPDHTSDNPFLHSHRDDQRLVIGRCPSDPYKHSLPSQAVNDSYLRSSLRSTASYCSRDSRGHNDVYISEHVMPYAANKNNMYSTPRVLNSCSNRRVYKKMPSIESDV
Sequence of NMDAR2B (Q13224 27-1484, species assumed, other chains not shown): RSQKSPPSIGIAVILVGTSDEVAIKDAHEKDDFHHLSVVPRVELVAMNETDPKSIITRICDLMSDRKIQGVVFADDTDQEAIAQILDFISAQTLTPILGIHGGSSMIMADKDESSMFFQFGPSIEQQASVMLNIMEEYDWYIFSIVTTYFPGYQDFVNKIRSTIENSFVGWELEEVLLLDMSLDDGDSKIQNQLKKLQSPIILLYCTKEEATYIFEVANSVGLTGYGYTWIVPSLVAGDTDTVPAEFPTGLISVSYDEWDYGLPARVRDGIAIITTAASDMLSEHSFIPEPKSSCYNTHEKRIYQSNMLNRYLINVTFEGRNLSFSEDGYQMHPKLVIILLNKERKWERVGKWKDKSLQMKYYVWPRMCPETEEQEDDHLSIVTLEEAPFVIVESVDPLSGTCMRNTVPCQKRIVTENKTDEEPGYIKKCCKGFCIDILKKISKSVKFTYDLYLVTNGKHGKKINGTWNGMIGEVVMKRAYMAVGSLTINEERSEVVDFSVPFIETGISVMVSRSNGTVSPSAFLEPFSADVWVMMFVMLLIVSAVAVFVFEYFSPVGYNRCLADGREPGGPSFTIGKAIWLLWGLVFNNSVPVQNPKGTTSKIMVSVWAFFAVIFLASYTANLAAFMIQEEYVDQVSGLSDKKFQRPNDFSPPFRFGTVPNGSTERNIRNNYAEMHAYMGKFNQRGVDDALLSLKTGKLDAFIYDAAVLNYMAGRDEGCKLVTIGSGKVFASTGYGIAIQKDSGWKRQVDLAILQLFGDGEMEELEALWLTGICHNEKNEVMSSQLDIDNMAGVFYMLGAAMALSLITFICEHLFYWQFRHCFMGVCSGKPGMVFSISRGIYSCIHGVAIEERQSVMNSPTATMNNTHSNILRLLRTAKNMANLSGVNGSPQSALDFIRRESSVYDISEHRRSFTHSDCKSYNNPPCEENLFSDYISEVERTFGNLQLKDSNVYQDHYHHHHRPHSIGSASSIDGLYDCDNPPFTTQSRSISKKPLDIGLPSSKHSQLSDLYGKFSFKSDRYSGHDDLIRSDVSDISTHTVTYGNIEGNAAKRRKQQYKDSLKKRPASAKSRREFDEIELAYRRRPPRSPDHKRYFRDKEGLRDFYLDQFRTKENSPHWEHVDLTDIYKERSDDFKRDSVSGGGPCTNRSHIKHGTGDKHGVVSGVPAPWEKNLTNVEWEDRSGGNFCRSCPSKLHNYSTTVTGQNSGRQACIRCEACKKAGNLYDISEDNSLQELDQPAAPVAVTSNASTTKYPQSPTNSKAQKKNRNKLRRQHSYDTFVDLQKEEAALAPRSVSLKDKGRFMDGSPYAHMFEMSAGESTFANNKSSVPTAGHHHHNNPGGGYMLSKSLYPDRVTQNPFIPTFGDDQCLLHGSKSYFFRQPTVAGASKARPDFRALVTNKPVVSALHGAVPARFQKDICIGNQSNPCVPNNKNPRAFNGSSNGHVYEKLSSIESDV

In the case of `C[C@@H](O)[C@@H](C(N)=O)N1C[C@]2(CCCN2C(=O)OC(C)(C)C)C1=O` [Compound W, tert-butyl (R)-2-((2S,3R)-1-amino-3-hydroxy-1-oxobutan-2-yl)-1-oxo-2,5-diazaspiro[3.4]octane-5-carboxylate], the Conclusion result on NMDAR2C was “WT2C agonist”; on NMDAR2A it was “WT2A agonist”; at NMDAR2D it was “agonist”; at NMDAR2B, “WT2B agonist”. Further, the “% 1 mM Glycine” value at NMDAR2C is recorded as 67.5%; at NMDAR2A, 18.33%; on NMDAR2D it was 66.72%; on NMDAR2B, 53.09%.

In the case of `C[C@@H](O)[C@@H](C(N)=O)N1C[C@@]2(CCCN2C(=O)OC(C)(C)C)C1=O` [Compound X, tert-butyl (S)-2-((2S,3R)-1-amino-3-hydroxy-1-oxobutan-2-yl)-1-oxo-2,5-diazaspiro[3.4]octane-5-carboxylate], the Conclusion result on NMDAR2C is “WT2C agonist”; at NMDAR2A, “WT2A agonist”; at NMDAR2D, “agonist”; on NMDAR2B, “WT2B agonist”. Besides, the “% 1 mM Glycine” value at NMDAR2C turned out to be 59.73%; at NMDAR2A, 41.04%; on NMDAR2D it was 93.58%; on NMDAR2B, 59.55%.

With `CC(C)C(=O)N1CCC[C@]12CN([C@H](C(N)=O)[C@@H](C)O)C2=O` [Compound Y, (2S,3R)-3-hydroxy-2-((R)-5-isobutyryl-1-oxo-2,5-diazaspiro[3.4]octan-2-yl)butanamide], the Conclusion result on NMDAR2C is “WT2C agonist”; on NMDAR2A it was “WT2A agonist”; at NMDAR2D it was “agonist”; at NMDAR2B, “WT2B agonist”. For the same compound, the “% 1 mM Glycine” value on NMDAR2C worked out at 64.24%; on NMDAR2A, 61.76%; on NMDAR2D, 54.85%; on NMDAR2B, 70.74%.

With `CC(C)C(=O)N1CCC[C@@]12CN([C@H](C(N)=O)[C@@H](C)O)C2=O` [Compound Z, (2S,3R)-3-hydroxy-2-((S)-5-isobutyryl-1-oxo-2,5-diazaspiro[3.4]octan-2-yl)butanamide], the Conclusion entry is recorded as “WT2C agonist” at NMDAR2C, “WT2A agonist” at NMDAR2A, “agonist” at NMDAR2D and “WT2B agonist” at NMDAR2B. Besides, the “% 1 mM Glycine” value on NMDAR2C was found to be 47.76%; at NMDAR2A, 42.5%; on NMDAR2D, 65.32%; on NMDAR2B, 70.49%.

As to `NCC1(CC(=O)O)CCCCC1` [gabapentin, reference compound], in the assay with Sprague Dawley rats, the “analgesic effect in the Bennett model” value is recorded as “only produced an analgesic effect 1 h post-dosing”.
